Assay [1] deals with T1, wild-type SOD1 (Homo sapiens, UniProt P00441). Put plainly: Differential scanning fluorimetry (DSF), thermal stability. Format: binding. Set-up: made in house; host or cells: EGy118ΔSOD1 yeast, YEp351 expression vector. The conditions noted are these: 10-fold molar excess S-XL6, 4 h 37°C; untreated 75.9°C. How it is done:
(§1) To understand how cross-linking effects SOD1 stability, we quantified changes in unfolding temperature (ΔTu, hereafter thermal stability).
(§2) The effect of cross-link formation on the thermal stability of SOD1 was determined by differential scanning fluorimetry as previously described. […] After incubation, SYPRO Orange (Invitrogen Corporation, Carlsbad, California, USA), an environmentally sensitive fluorescent dye which is quenched in an aqueous environment but becomes unquenched once it binds hydrophobic residues, was added to the reaction mixture to a final concentration of 200×. The samples were then transferred to a fast optical 96-well reaction plate (Applied Biosystem, Life Technologies Corporation, Carlsbad, California, USA) and loaded on to the real-time PCR machine (Applied Biosystem, Life Technologies Corporation, Carlsbad, California, USA) after plate was spun down to eliminate bubbles. The Melt curve template in StepOne Plus software was used to set up a method. […] The final concentration of DMSO in the reaction mixture was checked as it contributes to the denaturation of proteins. […] The background data was subtracted from the average relative fluorescence and average derivate for each temperature point, and the data were normalized before Tus were quantified by averaging the negative first derivative of relative fluorescence of all 3 runs and identifying the local minima.
In general terms: DSF heats the sample and reads unfolding from a dye or from intrinsic fluorescence.

For the next assay, the target named is SOD1^G93A (Homo sapiens, UniProt P00441, G94A). The description is as above. The assay is classed as binding. The arrangement: made in house; host or cells: EGy118ΔSOD1 yeast, YEp351 expression vector. The conditions noted are these: 10-fold molar excess S-XL6, 4 h 37°C; untreated 70.6°C. How it is done:
as §1, §2

The target of assay [2] is T1, wild-type SOD1. The assay is described as follows: SOD1 cross-linking in Hep G2 cells, SDS-PAGE and western blot. Format: cell-based. The conditions noted are these: Hep G2 cells in PBS buffer, 30 min. How it is done: The Hep G2 human hepatocarcinoma cell line (American Type Culture Collection, ATCC, Manassas, Virginia, USA) was cultured using complete EMEM (Eagle’s minimal essential medium, ATCC) media including 10% FBS (fetal bovine serum, ATCC) and 1% penicillin streptomycin (10,000 units/mL penicillin and 10,000 μg/mL streptomycin, Fisher Scientific, Hampton, New Hampshire, USA). Cells were counted and checked for morphology using an inverted Carl Zeiss microscope (Carl Zeiss Microscopy LLC, White Plains, New York, USA). A 96-well plate (Corning Life Sciences, Tewksbury, Massachusetts, USA) was used for culturing cells at 0.2 mill/mL concentration for 24 h at 37°C, 5% CO2 under controlled humidity for western blot experiment. […] Wild-type SOD1 purified from human erythrocyte (Sigma Aldrich, St. Louis, Missouri, USA) was used as positive control (standard) in the experiment. The growth buffer was aspirated and replaced with 30 μL of lysis buffer (150 mM NaCl, 1% Triton X-100, 0.5% sodium deoxycholate, 0.1% SDS, and 50 mM Tris (pH 8.0), all chemicals were purchased from Sigma Aldrich (St. Louis, Missouri, USA)) and incubated for 10 min followed by addition of non-reducing sample buffer. […]
For orientation: In western blotting, separated proteins are transferred to a membrane and probed.

The next assay deals with T2, SOD1 (Homo sapiens, UniProt P00441, G94A).
T2 construct: Extraction of SOD1^G93A from red blood cell (RBC) protein was performed as previously described; tissue Jackson Laboratory 002726; host or cells: red blood cells of transgenic B6SJL-Tg(SOD1*G93A)1Gur/J mice
The assay is described as follows: Target engagement in blood during the survival studies. The assay is classed as in vivo, mouse. From the text: Two fALS lines were used to assess survival in genetic backgrounds with different disease severity. […] Dose and dose regimen were estimated from the blood PK/PD profile and BBB penetration described above. A subcutaneous (SC) route of administration was chosen because in our hands it results in more precise delivery. […] In both studies, mice were gender and littermate matched and non ALS-related deaths were excluded. We are currently developing the methods necessary for quantifying copy number and cannot rule out reduced SOD1 expression as having contributed to the survival benefit in treated B6 G93A mice.
The data underlying this figure can be found in S1 Data. fALS, familial amyotrophic lateral sclerosis.

T1 sequence (P00441 2-154 limits assumed): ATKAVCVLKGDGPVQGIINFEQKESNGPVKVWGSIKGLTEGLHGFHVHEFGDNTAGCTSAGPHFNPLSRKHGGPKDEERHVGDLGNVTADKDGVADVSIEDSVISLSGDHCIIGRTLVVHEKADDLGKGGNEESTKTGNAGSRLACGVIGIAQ
T2 sequence (P00441 2-154 G94A limits assumed): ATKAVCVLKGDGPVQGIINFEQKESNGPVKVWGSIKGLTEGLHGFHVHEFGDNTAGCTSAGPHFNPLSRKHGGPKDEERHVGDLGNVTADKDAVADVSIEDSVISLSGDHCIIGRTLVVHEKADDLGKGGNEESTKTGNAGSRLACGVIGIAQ
Sequence of SOD1^G93A (P00441 2-154 G94A limits assumed): as above

As to `[O-][S+]1CCCCS1` (centres unmarked) [S-XL6, 1,2-dithiane-1-oxide], the “unfolding temperature (Tu) of S-XL6 cross-linked protein” value came out at 90.2 °C on wild-type SOD1 [1] and 85.0 °C on SOD1^G93A. Also, the concentration for a half-maximal effect (EC50) at wild-type SOD1 [2] was ~5 µM. The “target engagement after initial dose” value on SOD1 (B6SJL G93A mice, initial SC dose of 20 mg/kg) is “lower target engagement than expected”. For the same molecule, at SOD1 (survival studies, 50 mg/kg SC), the “SOD1 engaged (on average) over time” value is “approximately 40%”.

In general, EC50 refers to the concentration needed to bring the measured effect to its halfway point.

For the origin of these results see PMC10826971, “Evaluating protein cross-linking as a therapeutic strategy to stabilize SOD1 variants in a mouse model of familial ALS” (PLOS Biology, 2024).
